Test [1] is described as follows: Sensorial tests of the taste of the compounds (own investigations). In kind it is in vivo. The conditions noted are these: for salt-intensifying effect / cooling effect: sensorial tests; for intrinsic umami taste: sensorial tests of the compound. An excerpt: From the taste aspect the use according to the invention of a compound of the Formula (I) which is one of the two enantiomeric compounds of the Formula (IVa),
In this connection the relative configuration of the stereogenic centers is of great importance.

The next test has as its system trained panel. The experiment in a line: Sensorial tests in American beef bouillon / meat broth by trained panel (mouthfeel, comparison with MSG). In kind it is in vivo. The conditions noted are these: for umami taste compared to other compounds having an umami taste / MSG: American beef bouillon base, 5 ppm (IVc), 2 ppm (B1)+(B2), 0.5 ppm (P1)+(P2) vs 0.05 wt. % MSG (FIG. 1-3). An excerpt: This is also illustrated in the accompanying spider diagrams, in which an American beef bouillon as base is compared firstly to such a base containing an addition of 5 ppm of (1R,2S,5R,6S,7R)-2-isopropyl-5-methyl-bicyclo[4.1.0]heptane-7-carboxylic acid ethylamide (IVc) (FIG. 1) or 2 ppm of a mixture of (1S,2S,5R,6R,7S)-2-isopropyl-5-methyl-bicyclo[4.1.0]heptane-7-carboxylic acid cyclobutylamide (B1) and (1R,2S,5R,6S,7R)-2-isopropyl-5-methyl-bicyclo[4.1.0]heptane-7-carboxylic acid cyclobutylamide (B2) (FIG. 2) or 0.5 ppm of a mixture of (1S,2S,5R,6R,7S)-2-isopropyl-5-methyl-bicyclo[4.1.0]heptane-7-carboxylic acid cyclopentylamide (P1) and (1R,2S,5R,6S,7R)-2-isopropyl-5-methyl-bicyclo[4.1.0]heptane-7-carboxylic acid-cyclopentylamide (P2) (FIG. 3) respectively, and secondly with such a base containing an addition of 0.05 wt. % of MSG.
The mean values of the respective scores are shown.
The taste of a 0.5% American beef extract as base (continuous, pale line) was compared on the basis of an evaluation by a panel of trained testers with the taste firstly of such a base to which 5 ppm of (1R,2S,5R,6S,7R)-2-isopropyl-5-methyl-bicyclo[4.1.0]heptane-7-carboxylic acid ethylamide had been added (continuous, dark line), and secondly of such a base to which 0.05 wt. % of MSG had been added (dotted line).
The taste of a 0.5% American beef extract as base (continuous, pale line) was compared on the basis of an evaluation by a panel of trained testers to the taste firstly of such a base to which 2 ppm of a mixture of 1S,2S,5R,6R,7S)-2-isopropyl-5-methyl-bicyclo[4.1.0]heptane-7-carboxylic acid cyclobutylamide (B1) and (1R,2S,5R,6S,7R)-2-isopropyl-5-methyl-bicyclo[4.1.0]heptane-7-carboxylic acid cyclobutylamide (B2) had been added (continuous, dark line), and secondly of such a base to which 0.05 wt. % of MSG had been added (dotted line).
The taste of a 0.5 wt. % American beef extract as base (continuous, pale line) was compared on the basis of an evaluation by a panel of trained testers with the taste firstly of such a base to which 0.5 ppm of a mixture of (1S,2S,5R,6R,7S)-2-Isopropyl-5-methyl-bicyclo[4.1.0]heptane-7-carboxylic acid cyclopentylamide (P1) and (1R,2S,5R,6S,7R)-2-isopropyl-5-methyl-bicyclo[4.1.0]heptane-7-carboxylic acid cyclopentylamide (P2) had been added (continuous, dark line), and secondly of such a base to which 0.05 wt. % of MSG had been added (dotted line).

The source of these data is US8487133B2, “Substituted bicyclo [4.1.0] heptane-7-carboxylic acid amides and derivatives thereof as food flavor substances” (Symrise AG, priority 2006, dated 2013).

For the compound `CCNC(=O)C1C2CCCC(C(C)C)C21` (stereo not drawn) [2-isopropyl-bicyclo[4.1.0]heptane-7-carboxylic acid ethylamide, reference compound], in test [1], the salt-intensifying effect result is recorded as “slight” and the intrinsic umami taste result was “very slight, umami-like”.
Turning to “(1R,2S,5R,6S,7R)-2-isopropyl-5-methyl-bicyclo[4.1.0]heptane-7-carboxylic acid cyclobutylamide/(1S,2S,5R,6R,7S)-2-isopropyl-5-methyl-bicyclo[4.1.0]heptane-7-carboxylic acid cyclobutylamide [mixture of (B1) and (B2)]”, the sweetish impression result in test [1] (in vivo) was “slightly sweetish impression”. In addition, the intrinsic umami taste result in test [1] is “very strong umami note”. Besides, the “umami taste compared to other compounds having an umami taste / MSG” value in the test on trained panel is reported as “clear umami taste very similar to sodium glutamate (MSG)”.
Regarding “(1R,2S,5R,6S,7R)-2-isopropyl-5-methyl-bicyclo[4.1.0]heptane-7-carboxylic acid cyclohexylamide/(1S,2S,5R,6R,7S)-2-isopropyl-5-methyl-bicyclo[4.1.0]heptane-7-carboxylic acid cyclohexylamide [mixture of (H1) and (H2)]”, in test [1], the intrinsic umami taste result is reported as “umami note was also detected, which however developed somewhat more slowly”.
With `CCNC(=O)C1C2CC(C)CC(C)C21` (stereo not drawn) [2,4-dimethyl-bicyclo[4.1.0]heptane-7-carboxylic acid ethylamide], in test [1], the salt-intensifying effect result is given as “slight” and the intrinsic umami taste result is “stronger, umami-like”.
Regarding `CCNC(=O)[C@@H]1[C@@H]2[C@H]1[C@H](C)CC[C@H]2C(C)C` [(1S,2S,5R,6R,7S)-2-isopropyl-5-methyl-bicyclo[4.1.0]heptane-7-carboxylic acid ethylamide], in test [1], the cooling effect entry was “slight” and the intrinsic umami taste entry is “only moderately”.
With `CC(C)[C@@H]1CC[C@@H](C)[C@H]2[C@H](C(=O)NC3CCC3)[C@H]21` [Formula (B1), (1S,2S,5R,6R,7S)-2-isopropyl-5-methyl-bicyclo[4.1.0]heptane-7-carboxylic acid cyclobutylamide], the intrinsic umami taste result in test [1] is reported as “very strongly pronounced”.
Take `CC(C)[C@@H]1CC[C@@H](C)[C@@H]2[C@@H](C(=O)NC3CCC3)[C@@H]21` [Formula (B2), (1R,2S,5R,6S,7R)-2-isopropyl-5-methyl-bicyclo[4.1.0]heptane-7-carboxylic acid-cyclobutylamide]: the intrinsic umami taste result in test [1] is recorded as “very strongly pronounced”.
On to `CCNC(=O)C1CC1` [cyclopropanecarboxylic acid ethylamide, Cyclopropanecarboxylic acid N-ethylamide, reference compound], for which the umami taste result in test [1] (10 ppm in aqueous solutions) is reported as “very weak umami taste”. Also, in the test on trained panel (meat broth/consommé compositions), the “contribution to the mouthfeel” value is listed as “does not make any statistically significant contribution”.
In the case of `CCNC(=O)C1C2C(C)CCC(C(C)C)C12` (stereo not drawn) [2-Isopropyl-5-methyl-2-ispropyl-bicyclo[4.1.0]heptane-7-carboxylic acid ethylamide], in test [1] (in vivo), the sensorial properties result is on record as “particularly strong”.
In the case of “(1R,2S,5R,6S,7R)-2-isopropyl-5-methyl-bicyclo[4.1.0]heptane-7-carboxylic acid cyclopentylamide/(1S,2S,5R,6R,7S)-2-isopropyl-5-methyl-bicyclo[4.1.0]heptane-7-carboxylic acid cyclopentylamide [mixture of (P1) and (P2)]”, the umami taste result in test [1] (at very low concentrations) was “very much more intensive and clear”. The “umami taste compared to other compounds having an umami taste / MSG” value in the test with trained panel is recorded as “clear umami taste very similar to sodium glutamate (MSG)”.
`CC(C)[C@@H]1CC[C@@H](C)[C@H]2[C@H](C(=O)NC3CCCCC3)[C@H]21` [Formula (H1), (1S,2S,5R,6R,7S)-2-isopropyl-5-methyl-bicyclo[4.1.0]heptane-7-carboxylic acid cyclohexylamide]: in test [1], the intrinsic umami taste entry is given as “very strongly pronounced”.
Take `CCNC(=O)C1C2C1[C@H](C)CC[C@H]2C(C)C` (single isomer, unassigned) [mixture of both diastereomers]: in test [1], the cooling effect entry was “can no longer be detected” and the intrinsic umami taste entry is “completely dominated by the umami impression of the (1R,2S,5R,6S,7R) isomer”.
For the compound `CCNC(=O)[C@@H]1[C@@H]2[C@H]1[C@H](C(C)C)CC[C@H]2C` (single isomer, unassigned) [Formula (IVc)], the “intensification of saltiness, sweetness and umami taste of aroma compositions” value in test [1] (in vivo) is “intensifies the saltiness, the sweetness and the umami taste”. Moreover, in test [1], the cooling effect entry is “no cooling effect” and the intrinsic umami taste entry was “very strongly pronounced”. Further, the mouthfeel entry in the test on trained panel (5 ppm added to 0.5 wt. % American beef bouillon, compared with 0.05 wt. % MSG) is “increased by roughly the same extent as is normally achieved only by the addition of 0.05 wt. % of MSG”. In addition, in the test with trained panel, the “umami taste compared to other compounds having an umami taste / MSG” value is recorded as “clear umami taste very similar to sodium glutamate (MSG)”.
As for `CC(C)[C@@H]1CC[C@@H](C)[C@@H]2[C@@H](C(=O)NC3CCCCC3)[C@@H]21` [Formula (H2), (1R,2S,5R,6S,7R)-2-isopropyl-5-methyl-bicyclo[4.1.0]heptane-7-carboxylic acid-cyclohexylamide], the intrinsic umami taste entry in test [1] is on record as “very strongly pronounced”.
On to `CCNC(=O)C1C2CCCCC21` (stereo not drawn) [Bicyclo[4.1.0]heptane-7-carboxylic acid N-ethylamide, reference compound], for which the taste result in test [1] (in vivo) was “no detectable taste”.
Regarding `CCNC(=O)C1C2C3CCC(C3)C12` (stereo not drawn) [Tricyclo[3.2.1.0^2,4]octane-3-carboxylic acid N-ethylamide], in test [1], the salt-intensifying effect entry is reported as “salt-intensifying effect” and the intrinsic umami taste result is on record as “distinct umami taste”. Further, the mouthfeel result in the test on trained panel (50 ppm in broths/consommés made from American beef extract) is “statistically significant increase”.
